Data published in PMC8286840, “Identifying SARS-CoV-2 antiviral compounds by screening for small molecule inhibitors of Nsp3 papain-like protease” (Biochemical Journal, 2021).
Structures can show the parent of a compound that is named as a salt. Where two headings read alike, the source gives them in different places.

Key:
[1] = target: T1, SARS-CoV-2 PLpro (nsp3 1564–1878) (Severe acute respiratory syndrome coronavirus 2, UniProt P0DTD1); assay: biochemical; set-up: FRET-quenched peptide (Pro3) cleavage by PLpro, 10 min pre-incubation, slope over 20 min, normalised to no-compound control; settings: low concentration screen, read-out: % of control remaining
[2] = target: T1, SARS-CoV-2 PLpro (nsp3 1564–1878); assay: biochemical; set-up: FRET-quenched peptide (Pro3) cleavage by PLpro, 10 min pre-incubation, slope over 20 min, normalised to no-compound control; settings: high concentration screen, read-out: % of control remaining

Compound: C=CCc1cc(OC)c2c(c1)OCO2 [Myristicin]
- remaining activity at 1.25 µM ([1]; Well no.=3473): 99%
- remaining activity at 3.75 µM ([2]; Well no.=3473): 99.9%

Compound: Oc1ccc2ccccc2c1N=Nc1ccc(N=Nc2ccccc2)cc1 [Sudan III]
- remaining activity at 1.25 µM ([1]; Well no.=8024): 93.7%
- remaining activity at 3.75 µM ([2]; Well no.=8024): 93.4%

Compound: Cc1ccc(-c2nn(C(C)(C)CNC(=O)c3ccncc3)c3ncnc(N)c23)cc1 [WEHI-345]
- remaining activity at 1.25 µM ([1]; Well no.=6690): 96.4%
- remaining activity at 3.75 µM ([2]; Well no.=6690): 96.2%

Compound: CCNC1(C(N)=O)CCN(c2ncnc3c2nc(-c2ccccc2Cl)n3-c2ccc(Cl)cc2)CC1 [Otenabant (CP-945598) HCl]
- remaining activity at 1.25 µM ([1]; Well no.=8494): 103%
- remaining activity at 3.75 µM ([2]; Well no.=8494): 108%

Compound: O=C1OC(CN2CCOCC2)CN1/N=C/c1ccc([N+](=O)[O-])o1 (stereo not shown) [5-(4-morpholinylmethyl)-3-{[(E)-(5-nitro-2-furyl)methylidene]amino}-1,3-oxazolidin-2-one]
- remaining activity at 1.25 µM ([1]; Well no.=6079): 99.9%
- remaining activity at 3.75 µM ([2]; Well no.=6079): 98.7%

Compound: CCCCCCCC/C=C/CCCCCCCCCCCCC(=O)O [14(E)-Tricosenoic acid]
- remaining activity at 1.25 µM ([1]; Well no.=4500): 95.4%
- remaining activity at 3.75 µM ([2]; Well no.=4500): 94.8%

Compound: CCOC(=O)C1=C(C)NC(=S)NC1c1cccc(O)c1 (stereo not shown) [Monastrol]
- remaining activity at 1.25 µM ([1]; Well no.=891): 106%
- remaining activity at 3.75 µM ([2]; Well no.=891): 106%

Compound: O=C(O)C(=O)c1cn(Cc2ccccc2)c2ccc(-c3ccc(OC(F)(F)F)cc3)cc12 [Tiplaxtinin]
- remaining activity at 1.25 µM ([1]; Well no.=5648): 92.2%
- remaining activity at 3.75 µM ([2]; Well no.=5648): 93.4%

Compound: CCCc1nc(C)c2c(O)nc(-c3cc(S(=O)(=O)N4CCN(CC)CC4)ccc3OCC)nn12 [Vardenafil HCl Trihydrate]
- remaining activity at 1.25 µM ([1]; Well no.=8292): 101%
- remaining activity at 3.75 µM ([2]; Well no.=8292): 94.4%

Compound: Cc1nccn1CC1CCc2c(c3ccccc3n2C)C1=O (stereo not shown) [Ondansetron]
- remaining activity at 1.25 µM ([1]; Well no.=2104): 102%
- remaining activity at 3.75 µM ([2]; Well no.=2104): 102%

Compound: O=C(O)c1cc(/N=N/c2ccc(S(=O)(=O)Nc3ccccn3)cc2)ccc1O [Sulfasalazine]
- remaining activity at 1.25 µM ([1]; Well no.=2293): 96.4%
- remaining activity at 1.25 µM ([1]; Well no.=7312): 101%
- remaining activity at 3.75 µM ([2]; Well no.=2293): 97.5%
- remaining activity at 3.75 µM ([2]; Well no.=7312): 101%

Compound: COc1ccccc1NC(=O)Nc1nc(-c2cccnc2)nc2ccccc12 [VUF 5574]
- remaining activity at 1.25 µM ([1]; Well no.=1384): 101%
- remaining activity at 3.75 µM ([2]; Well no.=1384): 97.5%

Compound: C[C@@H]1CCN(C(=O)CC#N)C[C@@H]1N(C)c1ncnc2[nH]ccc12 [Tofacitinib citrate]
- remaining activity at 1.25 µM ([1]; Well no.=5551): 98.9%
- remaining activity at 3.75 µM ([2]; Well no.=5551): 109%

Compound: CCCCC/C=C\C/C=C\C/C=C\CCCCC(=O)O [6(Z), 9(Z), 12(Z)-Octadecatrienoic Acid]
- remaining activity at 1.25 µM ([1]; Well no.=4360): 107%
- remaining activity at 3.75 µM ([2]; Well no.=4360): 107%

Compound: CNS(=O)(=O)Cc1ccc2[nH]cc(CCN(C)C)c2c1 [Sumatriptan Succinate]
- remaining activity at 1.25 µM ([1]; Well no.=2085): 96.9%
- remaining activity at 3.75 µM ([2]; Well no.=2085): 97.6%

Compound: COc1cc(C(O)CN)ccc1O (racemic)
- remaining activity at 1.25 µM ([1]; Well no.=1049): 96.5%
- remaining activity at 3.75 µM ([2]; Well no.=1049): 96.1%

Compound: O=S(=O)(c1c(O)c(Cl)cc(Cl)c1Cl)c1c(O)c(Cl)cc(Cl)c1Cl [p38 MAP Kinase Inhibitor IV]
- remaining activity at 1.25 µM ([1]; Well no.=2527): 97.2%
- remaining activity at 3.75 µM ([2]; Well no.=2527): 103%

Compound: CCC(=O)OCC(=O)[C@@]1(OC(=O)CC)[C@@H](C)C[C@H]2[C@@H]3CCC4=CC(=O)C=C[C@]4(C)[C@@]3(F)[C@@H](O)C[C@@]21C [Betamethasone dipropionate]
- remaining activity at 1.25 µM ([1]; Well no.=7091): 93.4%
- remaining activity at 3.75 µM ([2]; Well no.=7091): 98.8%

Compound: NC[C@H]1O[C@H](O[C@H]2[C@H](O)[C@@H](O[C@H]3O[C@H](CO)[C@@H](O)[C@H](N)[C@H]3O)[C@H](N)C[C@@H]2N)[C@H](N)C[C@@H]1O [Tobramycin (free base)]
- remaining activity at 1.25 µM ([1]; Well no.=1960): 96.2%
- remaining activity at 3.75 µM ([2]; Well no.=1960): 95.9%

Compound: CCCc1cc(=O)oc2c(C(=O)N3CCCc4ccccc43)c(OC)cc(OC)c12 [BNS-22]
- remaining activity at 1.25 µM ([1]; Well no.=5907): 101%
- remaining activity at 3.75 µM ([2]; Well no.=5907): 98.7%

Compound: CN1[C@@H]2CC[C@H]1C[C@@H](OC(=O)c1cc(Cl)cc(Cl)c1)C2 [3-Tropanyl-3,5-dichlorobenzoate]
- remaining activity at 1.25 µM ([1]; Well no.=1278): 110%
- remaining activity at 3.75 µM ([2]; Well no.=1278): 108%

Compound: c1ccc(C2CC2)c(OCC2=NCCN2)c1 [Cirazoline hydrochloride]
- remaining activity at 1.25 µM ([1]; Well no.=537): 106%
- remaining activity at 3.75 µM ([2]; Well no.=537): 103%

Compound: O=C(c1cn(Cc2cncn2Cc2ccc(Br)cc2)cc1-c1cccc2ccccc12)N1CCOCC1 [LB42708]
- remaining activity at 1.25 µM ([1]; Well no.=8766): 99.3%
- remaining activity at 3.75 µM ([2]; Well no.=8766): 91.4%

Compound: NC(=O)c1ccccc1C(=O)N[C@@H](CCC(=O)O)C(=O)O [Phthalamoyl-L-glutamic acid trisodium]
- remaining activity at 1.25 µM ([1]; Well no.=1409): 99.3%
- remaining activity at 3.75 µM ([2]; Well no.=1409): 101%

Compound: NC(=O)c1cccnc1 [Nicotinamide]
- remaining activity at 1.25 µM ([1]; Well no.=6305): 102%
- remaining activity at 3.75 µM ([2]; Well no.=6305): 99.5%

Compound: Cn1cc(C2=C(c3cn(CCCSC(=N)N)c4ccccc34)C(=O)NC2=O)c2ccccc21 [Ro 31-8220 mesylate - 3-[3-[2,5-Dihydro-4-(1-methyl-1H-indol-3-yl)-2,5-dioxo-1H-pyrrol-3-yl]-1H-indol-1-yl]propyl carbamimidothioic acid ester mesylate]
- remaining activity at 1.25 µM ([1]; Well no.=2482): 104%
- remaining activity at 3.75 µM ([2]; Well no.=2482): 102%

Compound: c1ccc(NCc2ccc(CNc3ccccn3)cc2)nc1 [WZ 811]
- remaining activity at 1.25 µM ([1]; Well no.=4843): 100%
- remaining activity at 3.75 µM ([2]; Well no.=4843): 102%

Compound: CC(C)S(=O)(=O)N[C@H]1CCOC[C@@H]1c1ccc(-c2ccc(C#N)s2)cc1 [N-{(3R,4S)-3-[4-(5-cyano-2-thienyl)phenyl]tetrahydro-2H-pyran-4-yl}-2-propanesulfonamide]
- remaining activity at 1.25 µM ([1]; Well no.=6010): 100%
- remaining activity at 3.75 µM ([2]; Well no.=6010): 92.7%

Compound: O=c1oc2ccccc2c(O)c1Cc1c(O)c2ccccc2oc1=O [Dicoumarol]
- remaining activity at 1.25 µM ([1]; Well no.=3547): 104%
- remaining activity at 3.75 µM ([2]; Well no.=3547): 105%

Compound: CCOc1cc(C(C)(C)C)ccc1C1=N[C@@](C)(c2ccc(Cl)cc2)[C@@](C)(c2ccc(Cl)cc2)N1C(=O)N1CCN(CC(=O)N2CCOCC2)CC1 [p53 and MDM2 proteins-interaction-inhibitor (dihydrochloride)]
- remaining activity at 1.25 µM ([1]; Well no.=6832): 98.9%
- remaining activity at 1.25 µM ([1]; Well no.=7702): 107%
- remaining activity at 3.75 µM ([2]; Well no.=6832): 94.5%
- remaining activity at 3.75 µM ([2]; Well no.=7702): 106%

Compound: CN(C)CCN(Cc1ccccc1)c1ccccn1 [Tripelennamine HCl]
- remaining activity at 1.25 µM ([1]; Well no.=4979): 94.3%
- remaining activity at 3.75 µM ([2]; Well no.=4979): 93%

Compound: C=CC[C@]1(O)CC[C@H]2[C@@H]3CCC4=CC(=O)CCC4=C3C=C[C@@]21C [Altrenogest]
- remaining activity at 1.25 µM ([1]; Well no.=5020): 94.3%
- remaining activity at 3.75 µM ([2]; Well no.=5020): 93.9%

Compound: CN(C)[C@@H](CCOc1cccc2ccccc12)c1ccccc1 [Dapoxetine hydrochloride]
- remaining activity at 1.25 µM ([1]; Well no.=5853): 94.2%
- remaining activity at 3.75 µM ([2]; Well no.=5853): 91%
